Measurements from ChEMBL document CHEMBL1132037, “Anabaenopeptins G and H, potent carboxypeptidase A inhibitors from the cyanobacterium Oscillatoria agardhii (NIES-595)” (Bioorg Med Chem Lett, 1999).
Converted amounts (≈) assume the structure as drawn. Numbered stars: 1 amine (or outer) side, 2 acyl side, 3 side chain; on linkers, the order of the positions; unused ones are H or OH. Bridge positions count the residues as written; N and C are the ends. Square brackets hold non-standard residues; d marks the D form. Peptide text beside a SMILES is read from it. NMehTyr = CN[C@@H](CCc1ccc(O)cc1)C(=O)O; hTyr = N[C@@H](CCc1ccc(O)cc1)C(=O)O; NMeA = CN[C@@H](C)C(=O)O; CO = O=C([*:1])[*:2]

Columns and labels:
[1] = target: Carboxypeptidase A1 (Bos taurus) (UniProt P00730); assay: Ability to inhibit Carboxypeptidase A from bovine pancreas at a concentration of 50 ug/mL; No Activity
[2] = target: Carboxypeptidase A1 (Bos taurus) (UniProt P00730); assay: Ability to inhibit Carboxypeptidase A from bovine pancreas

Row | Compound | IC50 [1] | IC50 [2] [µg/mL]
1 | COc1ccc(CC[C@@H]2NC(=O)[C@H](C(C)C)NC(=O)[C@H](NC(=O)N[C@@H](CCCN=C(N)N)C(=O)O)CCCCNC(=O)[C@H](Cc3ccccc3)NC(=O)[C@H](C)N(C)C2=O)cc1 | Not Active | –
2 | CC(C)[C@@H]1NC(=O)[C@H](NC(=O)N[C@@H](CCCNC(=N)N)C(=O)O)CCCCNC(=O)[C@H](Cc2ccccc2)NC(=O)[C@H](C)N(C)C(=O)[C@H](CCc2ccc(O)cc2)NC1=O [ANABAENOPEPTIN B] ({Arg-CO}-[dK]V[hTyr][NMeA]F; lactam 1-C) | Not Active | –
3 | CC[C@H](C)[C@H](NC(=O)N[C@@H]1CCCCNC(=O)[C@H]([C@@H](C)CC)NC(=O)[C@H](CCc2ccc(O)cc2)N(C)C(=O)[C@H](CCc2ccc(O)cc2)NC(=O)[C@H](C(C)C)NC1=O)C(=O)O [ANABAENOPEPTIN T] | – | 2 (≈ 2.31 µM)

Other lines, results leading:

Row | IC50 [1] | IC50 [2] [µg/mL] | Compound
4 | – | 0.0018 (≈ 0.00194 µM) | CC[C@H](C)[C@@H]1NC(=O)[C@H](NC(=O)NC(Cc2ccc(O)cc2)C(=O)O)CCCCNC(=O)[C@H]([C@@H](C)CC)NC(=O)[C@H](CCc2ccc(O)cc2)N(C)C(=O)[C@H](CCc2ccc(O)cc2)NC1=O (stereo partly specified)
5 | Not Active | – | CC[C@H](C)[C@@H]1NC(=O)[C@H](NC(=O)N[C@@H](CCCNC(=N)N)C(=O)O)CCCCNC(=O)[C@H](Cc2ccccc2)NC(=O)[C@H](C)N(C)C(=O)[C@H](CCc2ccc(O)cc2)NC1=O [ANABAENOPEPTIN F] ({Arg-CO}-[dK]I[hTyr][NMeA]F; lactam 1-C)
6 | – | 3.4 (≈ 3.68 µM) | CC[C@H](C)[C@@H]1NC(=O)[C@H](NC(=O)N[C@@H](CCCNC(=N)N)C(=O)O)CCCCNC(=O)[C@H]([C@@H](C)CC)NC(=O)[C@H](CCc2ccc(O)cc2)N(C)C(=O)[C@H](CCc2ccc(O)cc2)NC1=O [ANABAENOPEPTIN H] ({Arg-CO}-[dK]I[hTyr][NMehTyr]I; lactam 1-C)
